Data on two compounds can be found in patent US6083941A, “Inhibition of NMDA receptor activity by pregnenolone sulfate derivatives” (Trustees of Boston University, priority 1998, dated 2000).

Where “and” joins values, the source holds several entries; their conditions need not be identical. Equal entries are not always repeated. Structures can show the parent of a compound that is named as a salt.

In test [1] the target is T1, recombinant NMDA receptors (NR1100 and NR2A subunits) (Rattus norvegicus, UniProt P35439+Q00959).
T1 construct: expressed in transfected cells; host or cells: Xenopus laevis oocytes injected with in vitro transcribed mRNA
T1 sequence (Q00959 23-1464, other chains not shown): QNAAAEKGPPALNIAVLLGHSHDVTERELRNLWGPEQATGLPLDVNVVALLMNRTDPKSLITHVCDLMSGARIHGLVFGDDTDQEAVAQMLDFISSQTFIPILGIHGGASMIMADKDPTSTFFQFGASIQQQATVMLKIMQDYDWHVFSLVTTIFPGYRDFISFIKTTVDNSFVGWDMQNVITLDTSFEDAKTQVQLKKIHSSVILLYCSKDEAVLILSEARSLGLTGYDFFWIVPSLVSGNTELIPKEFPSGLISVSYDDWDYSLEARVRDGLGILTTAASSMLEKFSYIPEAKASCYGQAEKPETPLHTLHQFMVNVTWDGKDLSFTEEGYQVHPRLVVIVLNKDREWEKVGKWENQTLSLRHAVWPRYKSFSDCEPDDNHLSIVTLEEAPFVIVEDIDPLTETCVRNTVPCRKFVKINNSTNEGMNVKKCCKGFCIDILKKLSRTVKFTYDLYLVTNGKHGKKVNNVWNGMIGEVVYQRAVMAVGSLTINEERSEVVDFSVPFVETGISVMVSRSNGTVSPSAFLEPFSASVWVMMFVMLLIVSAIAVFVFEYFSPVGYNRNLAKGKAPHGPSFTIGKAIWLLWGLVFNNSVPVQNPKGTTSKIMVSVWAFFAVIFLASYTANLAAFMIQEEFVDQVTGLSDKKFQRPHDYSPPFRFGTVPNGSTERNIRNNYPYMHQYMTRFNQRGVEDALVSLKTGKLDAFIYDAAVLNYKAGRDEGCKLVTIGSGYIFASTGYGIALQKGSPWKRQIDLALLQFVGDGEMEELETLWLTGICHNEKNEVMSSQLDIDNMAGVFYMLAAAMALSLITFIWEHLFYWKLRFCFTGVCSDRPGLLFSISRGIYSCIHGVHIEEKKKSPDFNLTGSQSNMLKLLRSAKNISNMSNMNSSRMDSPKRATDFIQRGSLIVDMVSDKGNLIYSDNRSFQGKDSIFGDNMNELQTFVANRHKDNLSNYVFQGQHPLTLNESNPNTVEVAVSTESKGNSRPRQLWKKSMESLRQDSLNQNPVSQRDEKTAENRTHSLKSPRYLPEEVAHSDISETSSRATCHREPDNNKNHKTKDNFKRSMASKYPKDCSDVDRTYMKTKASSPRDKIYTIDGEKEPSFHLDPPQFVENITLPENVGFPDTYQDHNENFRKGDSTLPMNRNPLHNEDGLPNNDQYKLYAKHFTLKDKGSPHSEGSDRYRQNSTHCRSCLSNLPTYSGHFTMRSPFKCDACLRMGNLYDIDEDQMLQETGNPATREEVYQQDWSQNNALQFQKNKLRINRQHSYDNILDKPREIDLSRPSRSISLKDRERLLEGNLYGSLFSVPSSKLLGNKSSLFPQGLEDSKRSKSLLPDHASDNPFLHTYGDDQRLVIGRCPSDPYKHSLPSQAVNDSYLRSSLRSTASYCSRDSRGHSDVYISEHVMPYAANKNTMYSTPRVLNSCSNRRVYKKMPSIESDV
The test can be described thus: Two electrode voltage-clamp of Xenopus oocytes expressing recombinant NMDA receptors. Format: cell-based. The protocol:
RNA preparation. mRNA were prepared through in vitro transcription of NR1100 and NR2A cDNAs using the mMessage mMachine kit (Ambion, Tex.). NR1100 and NR2A clones were kindly provided by Dr. Zukin and Dr. Nakanishie.
Xenopus expression system. Female, oocyte positive Xenopus laevis frogs were purchased from Nasco, Inc. (WI). The frogs were kept on a 12/12 light-dark cycle and maintained on a diet of chopped calf liver every 3 days. Prior to surgery, frogs were anesthetized in a 0.15% Tricaine solution (Sigma, Mo.) for 30-45 minutes. Ovarian sections containing the follicular oocytes were removed through a lateral abdominal incision and were immediately placed in calcium-free ND96 solution (in mM):96 NaCl; 1 MgCl2; 2 KCl; 5 Hepes; 2.5 pyruvate (pH adjusted to 7.4 with NaOH). Following a 2 hr. incubation in 0.2% collagenase type II (Sigma, Mo.) at room temperature, individual defolliculated oocytes were transferred into 60×15 mm glass petri dishes containing ND96 solution (in mM): 96 NaCl; 1 MgCl2; 2 KCl; 1.8 CaCl2; 5 Hepes; 2.5 pyruvate (pH adjusted to 7.4 with NaOH). The isolated oocytes were maintained in an incubator at 18° C. On the following date, batches of 20-40 selected oocytes (Dumont stage V and VI) were injected with 50 nl of prepared RNA solution (0.5 ng of NR1 and 12 ng of NR2A mRNAs per oocyte) using an electronic microinjector (Drummond, Pa.). The injected oocytes were used for electrophysiological experiments following 4-10 day incubation at 18° C.
Electrical recording and drug application. The ion current recordings were obtained in two electrodes voltage-clamp mode using an Axoclamp-2A amplifier (Axon Instruments, Inc., CA). The microelectrodes were fabricated with a programmed puller (Sutter Instrument Co., CA) from glass capillaries (Dagan, Minn.) and filled with 3M KCl solution. The resistance of filled microelectrodes was in the range of 2.5-3.5 M.OMEGA.. The oocytes were clamped at a holding potential of -70 mV. The membrane current was filtered at 500 Hz and sampled at 100 Hz frequency. The drugs were applied using a gravity driven external perfusion system. The data acquisition and external perfusion control were done using SuperScopeII software package (GW Instruments, MA). All experiments were performed at room temperature of 22-24° C.
The degree of modulation of the amino acid response by steroids, the percent change, was defined at (I'/I-1)×100%, where I and I' are respectively the agonist-induced currents in the absence and presence of steroid. Throughout, results are expressed as mean±SEM; statistical comparison of groups was carried out using Student's t test.

Another test deals with NMDA receptor. The experiment in a line: Whole cell patch clamp, NMDA-induced current in cultured chick spinal cord neurons. The conditions noted are these: for average inhibition of the current induced by 30 μM NMDA: 50 μM steroid. Type of test: cell-based. Background: In patch-clamp work, channel activity is measured electrically.

By EC50 is commonly meant the concentration that produces a half-maximal response. On to `CC(=O)[C@H]1CC[C@H]2[C@@H]3CC[C@@H]4C[C@H](OS(=O)(=O)O)CC[C@]4(C)[C@H]3CC[C@]12C` [5β3αS, 3α-hydroxy-5β-pregnan-20-one sulfate], for which the “effect on NMDA responses of NR1100/NR2A injected oocytes” value in test [1] was “had an inhibitory effect”. The “average inhibition of the current induced by 30 μM NMDA” value stood at 49.1±3.4% with NMDA receptor (in the absence of glycine) and 51.3±3.5% in the test on NMDA receptor (with added 10 μM glycine). Also, the “inhibition of the response to 30 μM NMDA” value in the test on NMDA receptor (100 μM steroid applied with NMDA, holding potential -70 mV, sulfate) was 66% and 66.1±2.7%. The “average inhibition of the NMDA-induced current” value stood at 62.0±2.8% with NMDA receptor (100 μM steroid, holding potential +50 mV) and 63.2±2.7% in the test on NMDA receptor (100 μM steroid, holding potential -70 mV, voltage dependence test). In addition, in the test on NMDA receptor (curve-fit analysis), the “maximal inhibition of the 30 μM NMDA response” value stood at 101.1%. The “NMDA nH in the presence of steroid” value in the test with NMDA receptor (in the presence of 50 μM 5β3αS) turned out to be 1.46. In the test on NMDA receptor (read-out: EC50 for inhibition of the 30 μM NMDA response, concentration-response curve, curve-fit, 30 μM NMDA, sulfate), the concentration giving a half-maximal response (EC50) is 62 µM and 62.1 µM. The “direct response to steroid applied alone” value in the test on NMDA receptor (steroid alone) was “did not produce any direct response”.

Consider `CC(=O)C1CCC2C3CC=C4CC(OS(=O)(=O)O)CCC4(C)C3CCC12C` (stereo not drawn) [PS, pregnenolone sulfate], for which, in test [1] (100 μM steroid, read-out: potentiation of a near maximal NMDA response (200 μM)), the activation at 100 µM was found to be 292 ± 34%. Also, the “average NMDA response with intracellular steroid” value with NMDA receptor (100 μM steroid in the electrode buffer) was “did not differ significantly from control”. Further, the “potentiation of the NMDA response” value with NMDA receptor (100 μM steroid in the presence of 10 μM arachidonic acid) was 182±25%; in the test on NMDA receptor (100 μM steroid in the presence of 200 μM 5β3βS) it was “still evident”; with NMDA receptor (100 μM steroid, in the presence of 100 μM spermine), 178±12%; with NMDA receptor (after approximately 1 hour of exposure to 10 mM DTT), 161±12%. The “potentiation of the NMDA induced current” value with NMDA receptor (100 μM steroid, after about 1 hour of 4 mM DTT) was found to be 165±26%. Also, the “potentiation of the response to 30 μM NMDA” value in the test on NMDA receptor (100 μM steroid, in the absence of spermine) was determined as 150±14%. For the same compound, in the test on NMDA receptor (after DTT plus NEM treatment), the “potentiation of the 30 μM NMDA response” value is 103±23%. For the same compound, the “potentiation of the NMDA response by extracellularly applied steroid” value in the test on NMDA receptor (in the absence of intracellular PS) is reported as 158±24%; in the test on NMDA receptor (in the presence of intracellular PS (100 μM)), 152±23%.
